This is an account of results in patent US20070117808A1, “Substituted Cycloalkylpyrrolones As Allosteric Modulators Of Glucokinase” (priority 2005, published 2007).

Several values for one entry are separate records, joined by “and”; a condition that tells them apart may be missing. Equal values may be shown once.

In test [1] the target is T1, human pancreas Glucokinase (GK) (Homo sapiens, UniProt P35557).
T1 construct: (His)6; made in house; host or cells: Escherichia coli
T1 sequence (P35557 1-465): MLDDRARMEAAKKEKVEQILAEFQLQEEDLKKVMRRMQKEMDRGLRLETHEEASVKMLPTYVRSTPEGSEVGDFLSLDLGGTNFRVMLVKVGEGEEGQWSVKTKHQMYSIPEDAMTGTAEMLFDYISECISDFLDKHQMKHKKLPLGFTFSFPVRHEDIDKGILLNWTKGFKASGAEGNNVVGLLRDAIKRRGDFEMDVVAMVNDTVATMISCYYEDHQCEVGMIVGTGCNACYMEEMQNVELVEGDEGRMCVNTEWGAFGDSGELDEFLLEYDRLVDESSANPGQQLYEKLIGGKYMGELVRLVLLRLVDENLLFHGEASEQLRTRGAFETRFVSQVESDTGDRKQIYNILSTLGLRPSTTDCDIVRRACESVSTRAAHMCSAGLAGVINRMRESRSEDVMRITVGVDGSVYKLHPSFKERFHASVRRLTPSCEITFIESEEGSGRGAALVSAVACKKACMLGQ
In words: Glucokinase enzyme assay, pancreas GK. The class given is biochemical. As to conditions: for EC50: concentration that produces 50% activation above the vehicle control; for EC100%: concentration that produces 100% activation above the vehicle control; for activation at 50 µM: percentage increase in GK activity above vehicle control, compound 50 μM, 12 mM glucose. The source says:
(§1) An enzymatic Glucokinase (GK) assay using purified recombinant human liver/pancreas enzyme was used to evaluate the effects of potential small molecule modulators.
(§2) In this assay, GK catalyzes glucose phosphorylation in the presence of ATP. The product of this reaction, glucose-6-phosphate, was then oxidized by an excess of glucose-6-phosphate dehydrogenase to produce gluconate-6-phosphate with concomitant reduction of nicotinamide adenine dinucleotide (NAD). […] Human GK (Liver/Pancreas) was expressed in Escherichia coli as a (His) 6-tagged fusion protein and was purified by metal chelate affinity chromatography. The assay was performed in a final incubation volume of 80 μl in a 96-well clear low UV absorption plates. The incubation mixture consisted of 25 mM HEPES, 2 mM MgSO4, 1 mM dithiothreotol (DTT), 1 mg/mL bovine serum albumin (BSA), 1 mM ATP, 1 mM NAD, and 12 mM glucose, 10 units per mL glucose-6-phosphate dehydrogenase, and +/−300 ng per mL GK. For determination of the affinity (Km) and Vmax, different concentrations of glucose ranging from 0.5 mM to 40 mM were used in the assay; see Grimsby, J., Sarabu, R.; Grippo, J. F.; et. al. Science 2003, 301, 370-373. Production of reduced NAD (Nicotinamide Adenine Dinucleotide) was measured as changes in absorption at 340 nm in 96-well plate reader (Envision model # 2101 Multilabel Plate reader). % Activation @ 50 μM was calculated as the percentage increase in GK activity above the vehicle control with the effective concentration of the compound being 50 μM. EC50% (μM) was calculated as the effective concentration of the compound that produces 50% activation above the vehicle control, and EC100% (μM) was calculated as the effective concentration of the compound that produces 100% activation above the vehicle control.

Test [2] has as its target T2, human liver Glucokinase (GK) (Homo sapiens, UniProt P35557).
T2 construct: (His)6; made in house; host or cells: Escherichia coli
T2 sequence (P35557 1-466 isoform P35557-2): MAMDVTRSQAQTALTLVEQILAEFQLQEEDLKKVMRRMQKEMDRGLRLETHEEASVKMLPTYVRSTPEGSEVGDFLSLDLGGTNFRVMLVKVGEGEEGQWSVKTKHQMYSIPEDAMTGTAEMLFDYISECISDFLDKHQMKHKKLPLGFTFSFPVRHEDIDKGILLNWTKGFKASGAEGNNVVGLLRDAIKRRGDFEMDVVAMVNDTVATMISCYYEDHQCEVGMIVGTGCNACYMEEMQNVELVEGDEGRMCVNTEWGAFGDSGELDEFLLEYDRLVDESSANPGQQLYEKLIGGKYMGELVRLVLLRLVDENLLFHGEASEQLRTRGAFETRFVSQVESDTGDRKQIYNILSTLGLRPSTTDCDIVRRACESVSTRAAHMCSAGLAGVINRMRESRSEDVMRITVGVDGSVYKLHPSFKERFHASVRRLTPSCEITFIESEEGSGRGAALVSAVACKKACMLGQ
In words: Glucokinase enzyme assay, liver GK. In kind it is biochemical. Particulars: for EC50: concentration that produces 50% activation above the vehicle control; for EC100%: concentration that produces 100% activation above the vehicle control; for activation at 50 µM: percentage increase in GK activity above vehicle control, compound 50 μM, 12 mM glucose.
Text: as §1, §2

For `COc1ccc(CN2C(=O)C3=C(CCC3)C2SCC(=O)Nc2ccccn2)cc1` (stereo not drawn) [Compound 16, 2-[2-(4-Methoxy-benzyl)-3-oxo-1,2,3,4,5,6-hexahydro-cyclopenta[c]pyrrol-1-ylsulfanyl]-N-pyridin-2-yl-acetamide], in test [1], the EC50 was determined as 1100 nM, the “EC100%” value came to 4.9 µM and the activation at 50 µM turned out to be 190%.
For the compound `COc1ccc(CN2C(=O)C3=C(CCCC3)C2OCC(=O)Nc2ccccn2)cc1` (stereo not drawn) [Compound 4, 2-[2-(4-Methoxy-benzyl)-3-oxo-2,3,4,5,6,7-hexahydro-1H-isoindol-1-yloxy]-N-pyridin-2-yl-acetamide], in test [2], the EC50 is 7780 nM, the “EC100%” value worked out at 31.4 µM and the activation at 50 µM was 114%.
For the compound `COc1ccc(CN2C(=O)C3=C(CCCC3)C2SCC(=O)Nc2ccc(C(N)=O)cn2)cc1OC` (stereo not drawn) [Compound 13, 6-{2-[2-(3,4-Dimethoxy-benzyl)-3-oxo-2,3,4,5,6,7-hexahydro-1H-isoindol-1-ylsulfanyl]-acetylamino}-nicotinamide], in test [1], the EC50 is 210 nM and the “EC100%” value was 3.1 µM.
In the case of `COC(=O)c1ccc(NC(=O)CSC2C3=C(CCCC3)C(=O)N2Cc2ccc(OC)cc2)nc1` (stereo not drawn) [Compound 2], in test [2], the EC50 is 160 nM and 210 nM; the “EC100%” value is 0.52 µM and 0.98 µM. For the same compound, in test [1], the EC50 is 350 nM and the “EC100%” value was found to be 1.32 µM.
As to `COc1ccc(CN2C(=O)C3=C(CCCC3)C2SCC(=O)Nc2ccc(C(=O)O)cn2)cc1` (stereo not drawn) [Compound 8, 6-{2-[2-(4-Methoxy-benzyl)-3-oxo-2,3,4,5,6,7-hexahydro-1H-isoindol-1-ylsulfanyl]-acetylamino}-nicotinic acid], the EC50 in test [2] is 900 nM; in test [1], 1300 nM and 740 nM and 630 nM. Moreover, in test [2], the “EC100%” value was determined as 2.5 µM.
As to `O=C(CSC1C2=C(CCCC2)C(=O)N1Cc1ccc([N+](=O)[O-])cc1)Nc1ccccn1` (stereo not drawn) [Compound 14, 2-[2-(4-Nitro-benzyl)-3-oxo-2,3,4,5,6,7-hexahydro-1H-isoindol-1-ylsulfanyl]-N-pyridin-2-yl-acetamide], in test [1], the EC50 worked out at 10900 nM, the “EC100%” value was above 50 µM and the activation at 50 µM amounted to 79.4%.
As for `COc1ccc(CN2C(=O)C3=C(CCCC3)C2SCC(=O)Nc2nccs2)cc1OC` (stereo not drawn) [Compound 12, 2-[2-(3,4-Dimethoxy-benzyl)-3-oxo-2,3,4,5,6,7-hexahydro-1H-isoindol-1-ylsulfanyl]-N-thiazol-2-yl-acetamide], in test [2], the EC50 came to 3100 nM, the “EC100%” value turned out to be 10.3 µM and the activation at 50 µM is 196%. In addition, in test [1], the EC50 was determined as 4300 nM, the “EC100%” value was found to be 17.1 µM and the activation at 50 µM came to 143%.
In the case of `COc1ccc([C@H](C)N2C(=O)C3=C(CCCC3)[C@H]2SCC(=O)Nc2ccccn2)cc1` (single isomer, unassigned) [Compound 7], the values for the activation at 50 µM in test [2] and in test [1] were 0% and 35%, respectively.
For `NC(=O)c1ccc(NC(=O)CSC2C3=C(CCCC3)C(=O)N2Cc2ccc(F)cc2)nc1` (stereo not drawn) [Compound 20, 6-{2-[2-(4-Fluorobenzyl)-3-oxo-2,3,4,5,6,7-hexahydro-1H-isoindol-1-sulfanyl]-acetylamino}-nicotinamide], in test [1], the EC50 was 450 nM and 270 nM; the “EC100%” value was 2 µM and 3.6 µM.
On to `O=C(CSC1C2=C(CCCC2)C(=O)N1Cc1ccc(F)cc1)Nc1ccc(C(=O)O)cn1` (stereo not drawn) [Compound 21, 6-{2-[2-(4-Fluoro-benzyl)-3-oxo-2,3,4,5,6,7-hexahydro-1H-isoindol-1-ylsulfanyl]-acetylamino}-nicotinic acid], for which, in test [1], the EC50 came out at 2200 nM, the “EC100%” value came to 12 µM and the activation at 50 µM turned out to be 165%.
With `O=C(CSC1C2=C(CCCC2)C(=O)N1Cc1cccc2ccccc12)Nc1ccccn1` (stereo not drawn) [Compound 17, 2-(2-Naphthalen-1-ylmethyl-3-oxo-2,3,4,5,6,7-hexahydro-1H-isoindol-1-ylsulfanyl)-N-pyridin-2-yl-acetamide], in test [1], the EC50 stood at 710 nM, the “EC100%” value is 6.3 µM and the activation at 50 µM was 125%.
As to `COC(=O)c1ccc(NC(=O)CSC2C3=C(CCCC3)C(=O)N2Cc2ccc(OC)c(OC)c2)nc1` (stereo not drawn) [Compound 9, 6-{2-[2-(3,4-Dimethoxy-benzyl)-3-oxo-2,3,4,5,6,7-hexahydro-1H-isoindol-1-ylsulfanyl]-acetylamino}-nicotinic acid methyl ester], in test [2], the EC50 was 250 nM, the “EC100%” value stood at 1.43 µM and the activation at 50 µM is 206%. Also, in test [1], the EC50 was 330 nM, the “EC100%” value was 2.2 µM and the activation at 50 µM amounted to 164%.
For the compound `O=C(CSC1C2=C(CCCC2)C(=O)N1Cc1cccnc1)Nc1ccccn1` (stereo not drawn) [Compound 18, 2-(3-Oxo-2-pyridin-3-ylmethyl-2,3,4,5,6,7-hexahydro-1H-isoindol-1-ylsulfanyl)-N-pyridin-2-yl-acetamide], in test [1], the EC50 was 3600 nM and the “EC100%” value is 22 µM.
In the case of `COc1ccc([C@H](C)N2C(=O)C3=C(CCCC3)[C@@H]2SCC(=O)Nc2ccccn2)cc1` (single isomer, unassigned) [Compound 6], the activation at 50 µM amounted to 21% in test [2] and 79% in test [1].
For `O=C(CSC1C2=C(CCCC2)C(=O)N1Cc1ccc(O)cc1)Nc1nccs1` (stereo not drawn) [Compound 15, 2-[2-(4-Hydroxy-benzyl)-3-oxo-2,3,4,5,6,7-hexahydro-1H-isoindol-1-ylsulfanyl]-N-thiazol-2-yl-acetamide], in test [1], the EC50 came out at 7300 nM, the “EC100%” value was above 50 µM and the activation at 50 µM came to 106%.
With `COc1ccc(CN2C(=O)C3=C(CCCC3)C2SCC(=O)Nc2ccccn2)cc1` (stereo not drawn) [Compound 3, 2-[2-(4-Methoxy-benzyl)-3-oxo-2,3,4,5,6,7-hexahydro-1H-isoindol-1-ylsulfanyl]-N-pyridin-2-yl-acetamide], in test [2], the EC50 is 390 nM, the “EC100%” value came to 1 µM and the activation at 50 µM came to 250%.
Regarding `O=C(CSC1C2=C(CCCC2)C(=O)N1Cc1ccncc1)Nc1ccccn1` (stereo not drawn) [Compound 19, 2-(3-Oxo-2-pyridin-4-ylmethyl-2,3,4,5,6,7-hexahydro-1H-isoindol-1-ylsulfanyl)-N-pyridin-2-yl-acetamide], in test [1], the EC50 stood at 1600 nM, the “EC100%” value was found to be 5 µM and the activation at 50 µM worked out at 218%.
For the compound `COc1ccc(CN2C(=O)C3=C(CCCC3)C2SCC(=O)Nc2ccccn2)cc1OC` (stereo not drawn) [Compound 10, 2-[2-(3,4-Dimethoxy-benzyl)-3-oxo-2,3,4,5,6,7-hexahydro-1H-isoindol-1-ylsulfanyl]-N-pyridin-2-yl-acetamide], in test [2], the EC50 came out at 390 nM, the “EC100%” value is 1.35 µM and the activation at 50 µM came to 259%. Also, in test [1], the EC50 is 450 nM and the “EC100%” value was 1.8 µM.
With `COC(=O)c1ccc(NC(=O)CSC2C3=C(CCCC3)C(=O)N2Cc2ccc(OC(C)C)cc2)nc1` (stereo not drawn) [Compound 5], in test [2], the EC50 was 3100 nM and 1050 nM; the “EC100%” value was 5.54 µM.
